Bounds are passed on as bounds.

Twelve compounds from BindingDB's records for doi:10.7270/Q23N21VG (Nmmlsc, 2009) can be followed below.

This assay deals with T1, GTPase KRas [1-37] (Homo sapiens, UniProt G3V5T7).
T1 construct: 1-37
T1 sequence (G3V5T7 whole entry): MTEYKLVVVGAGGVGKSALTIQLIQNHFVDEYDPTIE
In words: inhibitors of GTP binding, activated Ras, SAR follow-up, biochemical, additional analogs, activated mutant, multiplex flow cytometry, Ki (AID 2043). (In general: Flow cytometry measures light scatter and fluorescence of single cells or particles in a stream.)
The compound `O=C1Nc2c(Cl)cccc2C1=C1Nc2ccccc2C1=O` registered an EC50 greater than 30 µM. As for `O=C1Nc2c(Br)cccc2C1=C1Nc2ccccc2C1=O`, the EC50 is greater than 30 µM. As for `O=C1Nc2c(F)cccc2C1=C1Nc2ccccc2C1=O`, the figure is greater than 30 µM; as for `O=C1NC(=O)/C(=C2/C(=O)Nc3ccccc32)N1`, greater than 30 µM. Next, `O=C1Nc2ccc(Br)cc2C1=C1Nc2ccccc2C1=O`: greater than 30 µM; `O=C1Nc2ccccc2/C1=C1/Nc2ccccc2C1=O` [2-[(3Z)-2-oxo-2,3-dihydro-1H-indol-3-ylidene]-2,3-dihydro-1H-indol-3-one]: greater than 30 µM. Compound `O=C1N=c2ccccc2=C1c1[nH]c2ccccc2c1NO` [3-[3-(hydroxyamino)-1H-indol-2-yl]-2-indolone] came in with an EC50 greater than 30 µM. Next, `O=C1N=c2ccc(Br)cc2=C1c1[nH]c2ccccc2c1NO` [5-bromanyl-3-[3-(oxidanylamino)-1H-indol-2-yl]indol-2-one]: greater than 30 µM. As for `O=C1N=c2c(Br)cccc2=C1c1[nH]c2ccccc2c1NO` [7-bromanyl-3-[3-(oxidanylamino)-1H-indol-2-yl]indol-2-one], the figure is greater than 30 µM.

Consider `O=C1N=c2c(Cl)cccc2=C1c1[nH]c2ccccc2c1NO` [7-chloro-3-[3-(hydroxyamino)-1H-indol-2-yl]-2-indolone], for which the EC50 was greater than 30 µM.

Turning to `O=C1N=c2c(F)cccc2=C1c1[nH]c2ccccc2c1NO` [7-fluoro-3-[3-(hydroxyamino)-1H-indol-2-yl]-2-indolone], the EC50 is greater than 30 µM. `O=C1NC(=S)N/C1=C1\C(=O)Nc2ccccc21` [(3Z)-3-(5-oxo-2-sulfanylideneimidazolidin-4-ylidene)-1H-indol-2-one]: the EC50 was greater than 30 µM.

As a reminder, the EC50 is the concentration giving half of the maximal effect. Low values mean an effect from little substance, high ones a need for much substance.
